In brackets after ≈: the same amount, converted by molar mass. Activity calls are given as the source filed them. The calls are words filed in the database; no cut-off is given here. Peptide text beside a SMILES is read from it.
Assays:
Erythrocyte = assay: Hemolytic activity in human Red blood cells assessed as hemolysis incubated for 1 hrs by absorbance based microplate reader analysis; type: toxicity, cell-based
RAW264.7 [1] = assay: (§1) Cytotoxicity against mouse RAW264.7 cells infected with Salmonella typhimurium DT104 assessed as cell viability at 1 times of MIC measured at 180 min by MTT assay; type: toxicity, cell-based; details: raw264.7, 3 h
Staphylococcus aureus [2] = assay: Antibacterial activity against Staphylococcus aureus ATCC 29213 incubated overnight by standard microtiter dilution method; type: functional
Staphylococcus aureus [3] = assay: Antibacterial activity against methicillin-resistant Staphylococcus aureus ATCC 43300 incubated overnight by standard microtiter dilution method; type: functional
[4] = system: Staphylococcus epidermidis; assay: Antibacterial activity against methicillin-resistant Staphylococcus epidermidis ATCC 12228 incubated overnight by standard microtiter dilution method; type: functional
Enterococcus faecalis = assay: Antibacterial activity against Enterococcus faecalis ATCC 29212 incubated overnight by standard microtiter dilution method; type: functional
Escherichia coli = assay: Antibacterial activity against Escherichia coli O157:H7 CICC 21530 incubated overnight by standard microtiter dilution method; type: functional
Salmonella paratyphi = assay: Antibacterial activity against Salmonella paratyphi A CICC 21501 incubated overnight by standard microtiter dilution method; type: functional, Salmonella enterica subsp. enterica serovar Paratyphi A
[5] = system: Salmonella enterica subsp. enterica serovar Paratyphi B; assay: Antibacterial activity against Salmonella paratyphi B CICC 21495 incubated overnight by standard microtiter dilution method; type: functional
[6] = (§2) Antibacterial activity against Salmonella paratyphi C CICC 21512 incubated overnight by standard microtiter dilution method; type: functional, Salmonella enterica subsp. enterica serovar Paratyphi C; details: Salmonella enterica
[7] = (§3) Antibacterial activity against Salmonella enterica subsp. enterica serovar Choleraesuis ATCC 13312 incubated overnight by standard microtiter dilution method; type: functional
[8] = (§4) Antibacterial activity against Salmonella enterica subsp. enterica serovar Choleraesuis CICC 21493 incubated overnight by standard microtiter dilution method; type: functional
Salmonella enteritidis = assay: Antibacterial activity against Salmonella enteritidis CICC 21527 incubated overnight by standard microtiter dilution method; type: functional, Salmonella enterica subsp. enterica serovar Enteritidis
[9] = (§5) Antibacterial activity against Salmonella wandsworth CICC 21504 incubated overnight by standard microtiter dilution method; type: functional, Salmonella enterica subsp. enterica serovar Wandsworth; details: Salmonella enterica
Salmonella typhimurium [10] = assay: Antibacterial activity against Salmonella typhimurium CICC 21483 incubated overnight by standard microtiter dilution method; type: functional, Salmonella enterica subsp. enterica serovar Typhimurium
Salmonella typhimurium [11] = assay: Antibacterial activity against Salmonella typhimurium CICC 21913 incubated overnight by standard microtiter dilution method; type: functional, Salmonella enterica subsp. enterica serovar Typhimurium
[12] = (§6) Antibacterial activity against Salmonella blockley CICC 21489 incubated overnight by standard microtiter dilution method; type: functional, Salmonella enterica subsp. enterica serovar Blockley; details: Salmonella enterica
[13] = (§7) Antibacterial activity against Salmonella dublin CICC 21497 incubated overnight by standard microtiter dilution method; type: functional, Salmonella enterica subsp. enterica serovar Dublin; details: Salmonella enterica
Salmonella typhimurium [14] = assay: Antibacterial activity against Salmonella typhimurium DT104 ATCC 700408 incubated overnight by standard microtiter dilution method; type: functional, Salmonella enterica subsp. enterica serovar Typhimurium
Candida albicans = assay: Antifungal activity against Candida albicans ATCC 10231 incubated overnight by standard microtiter dilution method; type: functional
Salmonella typhimurium [15] = assay: Antibacterial activity against Salmonella typhimurium DT104 in the presence of NaCl by MH broth based assay; type: functional, Salmonella enterica subsp. enterica serovar Typhimurium; details: Salmonella enterica
Salmonella typhimurium [16] = assay: Antibacterial activity against Salmonella typhimurium DT104 in the presence of KCl by MH broth based assay; type: functional, Salmonella enterica subsp. enterica serovar Typhimurium; details: Salmonella enterica
Salmonella typhimurium [17] = assay: Antibacterial activity against Salmonella typhimurium DT104 in the presence of NH4Cl by MH broth based assay; type: functional, Salmonella enterica subsp. enterica serovar Typhimurium; details: Salmonella enterica
Salmonella typhimurium [18] = assay: Antibacterial activity against Salmonella typhimurium DT104 in the presence of CaCl2 by MH broth based assay; type: functional, Salmonella enterica subsp. enterica serovar Typhimurium; details: Salmonella enterica
Salmonella typhimurium [19] = assay: Antibacterial activity against Salmonella typhimurium DT104 in the presence of MgCl2 by MH broth based assay; type: functional, Salmonella enterica subsp. enterica serovar Typhimurium; details: Salmonella enterica
Salmonella typhimurium [20] = assay: Antibacterial activity against Salmonella typhimurium DT104 in the presence of FeCl3 by MH broth based assay; type: functional, Salmonella enterica subsp. enterica serovar Typhimurium; details: Salmonella enterica
Salmonella typhimurium [21] = assay: Antibacterial activity against Salmonella typhimurium DT104 in the presence 25% inactivated mouse serum by MH broth based assay; type: functional, Salmonella enterica subsp. enterica serovar Typhimurium; details: Salmonella enterica
Salmonella typhimurium [22] = assay: Antibacterial activity against Salmonella typhimurium DT104 in the presence 50% inactivated mouse serum by MH broth based assay; type: functional, Salmonella enterica subsp. enterica serovar Typhimurium; details: Salmonella enterica
[23] = Hemolytic activity in human Red blood cells assessed as hemolysis at 128 ug/ml incubated for 1 hrs by absorbance based microplate reader analysis relative to control; type: toxicity, cell-based, Erythrocyte; details: red blood cells (erythrocytes), at 128 µg/mL, read-out: Activity
Salmonella typhimurium [24] = assay: Antibacterial activity against multi-drug resistant Salmonella typhimurium DT104 assessed as inhibition of bacterial growth at 0.5 to 2 times of MIC by MH agar based serial dilution method; type: functional, organism-based; details: Salmonella enterica subsp. enterica serovar Typhimurium, time <= 120.0 min, TDE = time-dependent effect
Salmonella typhimurium [25] = assay: Antibacterial activity against multi-drug resistant Salmonella typhimurium DT104 assessed as inhibition of bacterial growth measured upto 120 mins by MH agar based serial dilution method; type: functional, organism-based; details: Salmonella enterica subsp. enterica serovar Typhimurium
Salmonella typhimurium [26] = assay: Antibacterial activity against Salmonella typhimurium DT104 infected in mouse RAW264.7 cells assessed as reduction in bacterial cells at 1 times of MIC measured for 180 mins by MH agar based serial dilution method; type: functional, organism-based; details: Salmonella enterica subsp. enterica serovar Typhimurium
[27] = as §1; type: toxicity, cell-based; details: RAW264.7 cells infected with Salmonella typhimurium DT104, read-out: Activity
Lipopolysaccharide (LPS) = assay: Displacement of BODIPY-TR-cadaverine from Salmonella typhimurium LPS assessed as increase in fluorescence intensity by fluorescence spectrophotometric analysis; details: Salmonella enterica subsp. enterica serovar Typhimurium; dose 0.25-8 µg/ml
RAW264.7 [28] = assay: Inhibition of LPS-stimulated NO production in mouse RAW264.7 cells incubated for 24 hrs by Griess reagent based analysis; type: functional, cell-based; details: dose 1-128 µg/ml
RAW264.7 [29] = assay: Inhibition of LPS-stimulated TNF-alpha production in mouse RAW264.7 cells at 1 to 128 ug/ml incubated for 24 hrs by ELISA analysis; type: functional, cell-based; details: dose 1-128 µg/ml
RAW264.7 [30] = assay: Inhibition of LPS-stimulated IL-1beta production in mouse RAW264.7 cells at 1 to 128 ug/ml incubated for 24 hrs by ELISA analysis; type: functional, cell-based; details: dose 1-128 µg/ml
RAW264.7 [31] = assay: Inhibition of LPS-stimulated IL-8 production in mouse RAW264.7 cells at 1 to 128 ug/ml incubated for 24 hrs by ELISA analysis; type: functional, cell-based; details: dose 1-128 µg/ml
Cell membrane [32] = assay: Induction of cytoplasmic membrane depolarization in Salmonella typhimurium DT104 assessed as increase in fluorescence intensity at 2 times of MIC incubated for 15 mins by DiSC3-5 dye based fluorescence method; type: subcellular; details: Salmonella enterica subsp. enterica serovar Typhimurium
Cell membrane [33] = assay: Disruption of membrane integrity in Salmonella typhimurium DT104 assessed as increase in fluorescence intensity at 0.5 to 2 times of MIC incubated for 15 mins by PI staining based flow cytometric analysis; type: subcellular; details: Salmonella enterica subsp. enterica serovar Typhimurium
[34] = system: Salmonella enterica subsp. enterica serovar Paratyphi C; assay: as §2; type: functional
[35] = system: Salmonella enterica subsp. enterica serovar Choleraesuis; assay: as §3; type: functional
[36] = system: Salmonella enterica subsp. enterica serovar Choleraesuis; assay: as §4; type: functional
[37] = system: Salmonella enterica subsp. enterica serovar Wandsworth; assay: as §5; type: functional
[38] = system: Salmonella enterica subsp. enterica serovar Blockley; assay: as §6; type: functional
[39] = system: Salmonella enterica subsp. enterica serovar Dublin; assay: as §7; type: functional
Salmonella typhimurium [40] = assay: Antibacterial activity against multi-drug resistant Salmonella typhimurium DT104 infected in ICR mouse model assessed as fecal shedding of bacteria at 2 mg/kg, ip administered for 3 days and measured on day 7; type: functional, organism-based; details: Salmonella enterica subsp. enterica serovar Typhimurium, time 7.0 day
Salmonella typhimurium [41] = assay: Antibacterial activity against multi-drug resistant Salmonella typhimurium DT104 infected in ICR mouse model assessed as reversal of mouse vigour loss at 2 mg/kg, ip administered for 3 days and measured on day 7; type: functional, organism-based; details: Salmonella enterica subsp. enterica serovar Typhimurium, time 7.0 day
Salmonella typhimurium [42] = assay: Antibacterial activity against multi-drug resistant Salmonella typhimurium DT104 infected in ICR mouse model assessed as reversal of mouse vitality loss at 2 mg/kg, ip administered for 3 days and measured on day 7; type: functional, organism-based; details: Salmonella enterica subsp. enterica serovar Typhimurium, time 7.0 day
Salmonella typhimurium [43] = assay: Antibacterial activity against multi-drug resistant Salmonella typhimurium DT104 infected in ICR mouse model assessed as reversal of body weight loss at 2 mg/kg, ip administered for 3 days and measured on day 7; type: functional, organism-based; details: Salmonella enterica subsp. enterica serovar Typhimurium, time 7.0 day
[44] = Salmonella enterica subsp. enterica serovar Typhimurium

In the case of POLYMYXIN B [listing 1 of 2 here], the MHC (Erythrocyte) is reported as > 128 µg/mL and the Activity (RAW264.7 [1]) is reported as > 90%.
Work on `CC(C)C[C@H](NC(=O)[C@H](CCCCN)NC(=O)[C@H](CC(C)C)NC(=O)[C@H](CCCCN)NC(=O)[C@H](CS)NC(=O)CNC(=O)[C@H](CO)NC(=O)[C@H](CCCCN)NC(=O)[C@@H](NC(=O)[C@H](CS)NC(=O)[C@H](CCCCN)NC(=O)[C@H](CC(C)C)NC(=O)[C@H](CCCCN)NC(=O)[C@@H](N)CC(C)C)[C@@H](C)O)C(N)=O` (H-LKLKCTKSGCKLKL-NH2) yielded an MIC (Staphylococcus aureus [2]) of 32 µg/mL (≈ 20.5 µM), an MIC (Staphylococcus aureus [3]) of 16 µg/mL (≈ 10.2 µM) and an MIC [4] of 8 µg/mL (≈ 5.12 µM). It also gave an MIC (Enterococcus faecalis) of 32 µg/mL (≈ 20.5 µM), an MIC (Escherichia coli) of 2 µg/mL (≈ 1.28 µM) and an MIC (Salmonella paratyphi; Salmonella enterica) of 4 µg/mL (≈ 2.56 µM). The MIC [5] was 2 µg/mL (≈ 1.28 µM), the MIC [6] was 2 µg/mL (≈ 1.28 µM) and the MIC [7] was 1 µg/mL (≈ 0.64 µM). It also gave an MIC [8] of 16 µg/mL (≈ 10.2 µM), an MIC (Salmonella enteritidis; Salmonella enterica) of 16 µg/mL (≈ 10.2 µM) and an MIC [9] of 16 µg/mL (≈ 10.2 µM). The MIC (Salmonella typhimurium [10]; Salmonella enterica) was 16 µg/mL (≈ 10.2 µM), the MIC (Salmonella typhimurium [11]; Salmonella enterica) was 64 µg/mL (≈ 41 µM) and the MIC [12] was 32 µg/mL (≈ 20.5 µM). It also gave an MIC [13] of 8 µg/mL (≈ 5.12 µM), an MIC (Salmonella typhimurium [14]; Salmonella enterica) of 32 µg/mL (≈ 20.5 µM) and an MIC (Candida albicans) of 4 µg/mL (≈ 2.56 µM). For the same compound, the MHC (Erythrocyte) was > 128 µg/mL, the MIC (Salmonella typhimurium [15]) was 32 µg/mL and the MIC (Salmonella typhimurium [16]) was 16 µg/mL. It also gave an MIC (Salmonella typhimurium [17]) of 16 µg/mL, an MIC (Salmonella typhimurium [18]) of 64 µg/mL and an MIC (Salmonella typhimurium [19]) of 32 µg/mL. It also gave an MIC (Salmonella typhimurium [20]) of 128 µg/mL, an MIC (Salmonella typhimurium [21]) of 64 µg/mL (≈ 41 µM) and an MIC (Salmonella typhimurium [22]) of 64 µg/mL (≈ 41 µM). For the same compound, the hemolysis at 1 h, 128 ug/ml [23] was < 10%, the Activity (Salmonella typhimurium [24]) was “Tde” and the Activity (Salmonella typhimurium [25]) was “Dose-Dependent Effect”. The Activity (Salmonella typhimurium [26]) was “Active”, the viability at 3 h, 1 times of MIC [27] was > 90% and the Activity (Lipopolysaccharide (LPS)) was “Dose-Dependent Effect”. The inhibition (RAW264.7 [28]) was “Dose-Dependent Effect”, the inhibition (RAW264.7 [29]) was “Active” and the inhibition (RAW264.7 [30]) was “Active”. The inhibition (RAW264.7 [31]) was “Active”, the Activity (Cell membrane [32]) was “Active” and the Activity (Cell membrane [33]) was “Active”.
With POLYMYXIN B [listing 2 of 2 here] the MIC (Staphylococcus aureus [2]) was 64 µg/mL, the MIC (Staphylococcus aureus [3]) was > 128 µg/mL and the MIC [4] was 4 µg/mL. For the same compound, the MIC (Enterococcus faecalis) was 128 µg/mL, the MIC (Escherichia coli) was 32 µg/mL and the MIC (Salmonella paratyphi; Salmonella enterica subsp. enterica serovar Paratyphi A) was 4 µg/mL. For the same compound, the MIC [5] was 2 µg/mL, the MIC [34] was 2 µg/mL and the MIC [35] was 1 µg/mL. It also gave an MIC [36] of 4 µg/mL, an MIC (Salmonella enteritidis; Salmonella enterica subsp. enterica serovar Enteritidis) of 2 µg/mL and an MIC [37] of 1 µg/mL. For the same compound, the MIC (Salmonella typhimurium [10]; [44]) was 2 µg/mL, the MIC (Salmonella typhimurium [11]; [44]) was 2 µg/mL and the MIC [38] was 1 µg/mL. It also gave an MIC [39] of 2 µg/mL, an MIC (Salmonella typhimurium [14]; [44]) of 4 µg/mL and an MIC (Candida albicans) of 64 µg/mL. For the same compound, the Activity (Lipopolysaccharide (LPS)) was “Dose-Dependent Effect”, the Activity (Salmonella typhimurium [40]) was “inactive” and the Activity (Salmonella typhimurium [41]) was “inactive”. The Activity (Salmonella typhimurium [42]) was “inactive” and the Activity (Salmonella typhimurium [43]) was “inactive”.

From ChEMBL document CHEMBL5352429, “Designed symmetrical β-hairpin peptides for treating multidrug-resistant salmonella typhimurium infections” (Eur J Med Chem, 2022)
